Measured values published in patent US9347937B2, “Vaccine comprising Amb a 1 peptides for use in the treatment of ragweed allergy” (Circassia Limited, priority 2008, dated 2016).
No end group written: not given here.

How the values were obtained:
[1] = In vitro solubility testing in an acidic environment; type: physicochemical
Description: Accordingly, the inventors have determined that RGW03B is preferred over RGW03.
The modified peptides were tested for solubility and their ability to induce IL-10 from PBMC in the presence of the mixture of peptides identified in FIG. 1 (RGW01+RGW03B+RGW04A+RGW02+RGW05+RGW06A). Controls included the peptide mixture with no RGW07 variant and with whole Amb a 1 allergen.

[2] = system: blood basophils from ragweed allergic subjects; assay: Histamine release assay (Immunotech Histamine Release Immunoassay kit); details: for Subjects with histamine release >15% of positive control: 43 or 20 subjects, highest dose tested 10 μg/ml
Description: Peptides or combinations of peptides that induce histamine release frequently may be considered unsuitable for inclusion in the peptide vaccine.
Histamine release requires the crosslinking of adjacent specific IgE molecules on the surface of the basophil.
Histamine release from fresh peripheral whole blood from ragweed allergic subjects was evaluated. Peripheral blood basophils were used as a surrogate for tissue mast cells which were not practical to assay.
Histamine release in response to whole ragweed allergen extract was measured in each subject to confirm basophil sensitisation. A positive control, representing total histamine release, generated by freeze/thawing the cells twice, was included in each assay. A negative control for spontaneous histamine release was generated by incubating cells in buffer only.
The assay was performed using the Immunotech Histamine Release Immunoassay kit according to the manufacturer's instructions. Following the in vitro challenge of blood basophils with peptides, peptide mixes, whole allergen or buffer in microtitre plate wells, supernatants were removed and the histamine in the samples converted to acyl histamine. Acylated samples were tested by a competitive acyl histamine ELISA.
Peptides were assayed for their ability to induce histamine release over a 5 log 10 range (1 to 10,000 ng/ml). The concentration range assayed was selected based on theoretical in vivo doses of peptide that may be achieved during therapy. […] Whole ragweed allergen extract was used over a slightly higher concentration range (10 to 100,000 ng/ml).
Single measurements were performed for each dilution. After completion of the ELISA, individual histamine levels were determined by interpolation from the standard curve generated in the ELISA assay. Results from samples were adjusted to allow for dilution.

[3] = pH 2.97 0.1 mM HCl, 0.5% (w/v) 1-thioglycerol (ca. 46 mM), 230 mM trehalose
[4] = pH 2.97, Table 6, RGW07 and variants, acidic environment

Sequence	solubility [1, 3]	Maximum histamine release (% of positive control at 10 μg/mL) [2]	Mean histamine release of 43 or 20 subjects as a % of positive control at 10 μg/mL [2]	Subjects with histamine release >15% of positive control [2]	solubility [1, 4]	solubility in an acidic environment ([1]; acidic environment)
RDLLENGAIFLPSG [RGW03B]	3850 µg/mL	0%	1%	0/43	–	–
KEGTLRFAAAQNRP [RGW05]	–	0%	0%	0/43	–	–
AINNDKTIDGRGAKVE [RGW06A]	–	0%	1%	0/43	–	–
SAGMIPAEPGEA [RGW04A]	–	0%	0%	0/43	–	–
GMIKSNDGPPI [RGW01]	–	0%	1%	0/43	–	–
GSSQIWIDHSSLSKS [RGW02]	–	0%	1%	0/43	–	–
KGEAAIKLTSSAGVLSKK [RGW07D]	–	0%	3%	0/20	4260 µg/mL	–
KGEAAIKLTSSAGVLSK [RGW07C]	–	–	–	–	1550 µg/mL	–
GEAAIKLTSSAGVLS [RGW07]	–	0%	1%	0/43	700 µg/mL	poor solubility
KDLLENGAIFVTSG [RGW03]	< 620 µg/mL	–	–	–	–	–
